Consider three molecules from patent publication US11731969B2, “Crystal polymorph of 8-bromo-2-(1-methylpiperidin-4-ylamino)-4-(4-phenoxyphenylamino)pyrido[4,3-d]pyrimidin-5(6H)-one hydrochloride and method for preparing same” (OSCOTEC INC., priority 2018, dated 2023).

Counter-ions that a name gives are not always drawn.

Data set [1] can be described thus: Evaluation of solubility in distilled water (HPLC). It counts as physicochemical. Conditions: for Solubility: distilled water, 20 mg/ml added, stirred 2 hours at room temperature (25° C.), filtered, HPLC, hydrochloride; for Solubility as compared with Compound 1 (in words): summary of Table 1. As for the experimental part: Distilled water was added to 8-bromo-2-(1-methylpiperidin-4-ylamino)-4-(4-phenoxyphenylamino)pyrido[4,3-d]pyrimidin-5(6H)-one hydrochloride (Compound 1) represented by the above Formula 1 and the crystalline form (VI) and the crystalline form (X) obtained in the Examples such that the concentration was 20 mg/ml, which was stirred for 2 hours at room temperature (25° C.) and then filtered. Thereafter, it was diluted 200 times with acetonitrile of a concentration of 50%.

Data set [2] can be described thus: Evaluation of hygroscopicity by dynamic moisture adsorption analyzer (DVS). The following applies: for Hygroscopicity (%): 25° C., DVS, hydrochloride. It is filed as physicochemical. As for the experimental part:
8-bromo-2-(1-methylpiperidin-4-ylamino)-4-(4-phenoxyphenylamino)pyrido[4,3-d]pyrimidin-5(6H)-one hydrochloride (Compound 1) represented by the above Formula 1 and the crystalline form (VI) obtained in the Examples were measured for hygroscopicity in a relative humidity range of 0% to 90% at 25° C. using a dynamic moisture adsorption analyzer (DVS).

A further data set deals with protein kinase. The following applies: see Korean Laid-open Patent Publication No. 2014-0144709; cited from earlier work.

A word on the Solubility: it is the dissolved amount per volume that the medium holds. As for `CN1CCC(Nc2nc(Nc3ccc(Oc4ccccc4)cc3)c3c(=O)[nH]cc(Br)c3n2)CC1` [Crystalline form (X), 8-bromo-2-(1-methylpiperidin-4-ylamino)-4-(4-phenoxyphenylamino)pyrido[4,3-d]pyrimidin-5(6H)-one hydrochloride], in data set [1], the Solubility was 17.3 mg/mL and the “Solubility as compared with Compound 1 (in words)” value is “improved solubility”.

With `CN1CCC(Nc2nc(Nc3ccc(Oc4ccccc4)cc3)c3c(=O)[nH]cc(Br)c3n2)CC1` [Compound 1, 8-bromo-2-(1-methylpiperidin-4-ylamino)-4-(4-phenoxyphenylamino)pyrido[4,3-d]pyrimidin-5(6H)-one hydrochloride], in data set [1], the Solubility was 0.25 mg/mL. Also, the “Hygroscopicity (%)” value in data set [2] (relative humidity 0.0%) was found to be 0.001%; in data set [2] (relative humidity 10.0%), 0.655%; in data set [2] (relative humidity 20.0%), 1.202%; in data set [2] (relative humidity 30.0%), 1.695%; in data set [2] (relative humidity 40.0%) it was 2.081%; in data set [2] (relative humidity 50.0%), 2.457%. Also, the “Hygroscopicity (%)” value in data set [2] (relative humidity 60.0%) is listed as 2.823%; in data set [2] (relative humidity 70.0%), 3.215%; in data set [2] (relative humidity 80.0%), 3.696%; in data set [2] (relative humidity 90.0%) it was 4.584%. Also, the “Effect on the activity of protein kinase (in words)” value in the data set with protein kinase is on record as “has an effect of inhibiting the activity of protein kinase”.

Regarding `CN1CCC(Nc2nc(Nc3ccc(Oc4ccccc4)cc3)c3c(=O)[nH]cc(Br)c3n2)CC1` [Crystalline form (VI), 8-bromo-2-(1-methylpiperidin-4-ylamino)-4-(4-phenoxyphenylamino)pyrido[4,3-d]pyrimidin-5(6H)-one hydrochloride], the Solubility in data set [1] was 19.1 mg/mL. Further, the “Solubility as compared with Compound 1 (in words)” value in data set [1] was “improved solubility”. The “Hygroscopicity (%)” value in data set [2] (relative humidity 0.0%) turned out to be 0.004%; in data set [2] (relative humidity 10.0%) it was 0.707%; in data set [2] (relative humidity 20.0%) it was 0.948%; in data set [2] (relative humidity 30.0%), 1.132%; in data set [2] (relative humidity 40.0%), 1.280%; in data set [2] (relative humidity 50.0%), 1.419%. In addition, the “Hygroscopicity (%)” value in data set [2] (relative humidity 60.0%) is 1.561%; in data set [2] (relative humidity 70.0%) it was 1.726%; in data set [2] (relative humidity 80.0%) it was 1.973%; in data set [2] (relative humidity 90.0%) it was 2.452%. Further, the “Hygroscopicity as compared with Compound 1 (in words)” value in data set [2] (summary of Table 2) is “improved hygroscopicity”.
